Biological target: T1, Aurora-2 (Homo sapiens, UniProt O14965)
T1 sequence (O14965 1-403): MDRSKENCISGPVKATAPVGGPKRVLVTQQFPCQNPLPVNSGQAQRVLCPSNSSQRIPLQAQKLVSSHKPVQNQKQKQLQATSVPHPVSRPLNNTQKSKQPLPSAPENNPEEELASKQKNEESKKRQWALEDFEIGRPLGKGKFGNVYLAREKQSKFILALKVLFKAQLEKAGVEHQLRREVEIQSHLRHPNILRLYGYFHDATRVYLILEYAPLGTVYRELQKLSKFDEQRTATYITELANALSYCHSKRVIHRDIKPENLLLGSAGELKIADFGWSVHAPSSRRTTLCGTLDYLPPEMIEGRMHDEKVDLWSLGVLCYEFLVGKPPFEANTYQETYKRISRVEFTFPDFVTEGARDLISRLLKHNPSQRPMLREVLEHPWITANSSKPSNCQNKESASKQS
Assay: Inhibition assay of Aurora-2 activity (SPA technology)
Format: biochemical
Conditions: screened according to the methods of the pharmacology section; read-out: IC50 values for Aurora-2 inhibition
Description: The inhibiting activity and the potency of selected compounds is determined through a method of assay based on the use of the SPA technology (Amersham Pharmacia Biotech).
The assay consists of the transfer of radioactivity labelled phosphate moiety by the kinase to a biotinylated substrate. The resulting 33P-labelled biotinylated product is allowed to bind to streptavidin-coated SPA beads (biotin capacity 130 pmol/mg), and light emitted was measured in a scintillation counter.
Inhibition Assay of Aurora-2 Activity
After 60 minutes at room temperature incubation, reaction was stopped and biotinylated peptide captured by adding 100 μl of bead suspension.
Stratification: 100 μl of CsCl2 5 M were added to each well and let stand 4 hour before radioactivity was counted in the Top-Count instrument.
Experimental data were analyzed by the computer program GraphPad Prizm using the four parameter logistic equation: y=bottom+(top−bottom)/(1+10^((logIC50−x)*slope)) where x is the logarithm of the inhibitor concentration, y is the response; y starts at bottom and goes to top with a sigmoid shape.

SMILES	IC50 [nM]
COc1ccc(C(=O)Nc2n[nH]c3sc(C(=O)NC4(c5ccccc5)CC4)cc23)cc1 [Compound 134, 3-(4-Methoxy-benzoylamino)-1H-thieno[2,3-c]pyrazole-5-carboxylic acid (1-phenyl-cyclopropyl)-amide]	< 20
O=C(Nc1n[nH]c2sc(C(=O)NC3(c4ccccc4)CC3)cc12)c1ccc(F)cc1 [Compound 7, 3-[(4-fluorobenzoyl)amino]-N-(1-phenylcyclopropyl)-1H-thieno[2,3-c]pyrazole-5-carboxamide]	< 20
CN1CCN(Cc2ccc(C(=O)Nc3n[nH]c4sc(C(=O)NC(C)(C)c5ccccc5)cc34)cc2)CC1 [Compound 27, N-(1-methyl-1-phenylethyl)-3-({4-[(4-methylpiperazin-1-yl)methyl]benzoyl}amino)-1H-thieno[2,3-c]pyrazole-5-carboxamide]	< 20
CN1CCC(Oc2ccc(C(=O)Nc3n[nH]c4sc(C(=O)NC(C)(C)c5ccccc5)cc34)cc2)CC1 [Compound 25, N-(1-methyl-1-phenylethyl)-3-({4-[(1-methylpiperidin-4-yl)oxy]benzoyl}amino)-1H-thieno[2,3-c]pyrazole-5-carboxamide]	< 20
CC(C)(NC(=O)c1cc2c(NC(=O)c3ccc(CN4CCC4)cc3)n[nH]c2s1)c1ccccc1 [Compound 53, 3-(4-Azetidin-1-ylmethyl-benzoylamino)-1H-thieno[2,3-c]pyrazole-5-carboxylic acid (1-methyl-1-phenyl-ethyl)-amide]	< 20
CN1CCN(c2ccc(C(=O)Nc3n[nH]c4sc(C(=O)NC5(c6ccccc6)CC5)cc34)cc2)CC1 [Compound 35, 3-{[4-(4-methylpiperazin-1-yl)benzoyl]amino}-N-(1-phenylcyclopropyl)-1H-thieno[2,3-c]pyrazole-5-carboxamide]	< 20
O=C(Nc1n[nH]c2sc(C(=O)NC3(c4ccccc4)CCCC3)cc12)c1cccs1 [Compound 122, 3-[(Thiophene-2-carbonyl)-amino]-1H-thieno[2,3-c]pyrazole-5-carboxylic acid (1-phenyl-cyclopentyl)-amide]	< 20
CC(C)(NC(=O)c1cc2c(NC(=O)c3ccc(CN4CCC(F)CC4)cc3)n[nH]c2s1)c1ccccc1 [Compound 46]	< 20
CC(C)(NC(=O)c1cc2c(NC(=O)c3ccc(N4CCOCC4)cc3)n[nH]c2s1)c1ccncc1 [Compound 138, 3-(4-Morpholin-4-yl-benzoylamino)-1H-thieno[2,3-c]pyrazole-5-carboxylic acid (1-methyl-1-pyridin-4-yl-ethyl)-amide]	< 20
CCC(CC)(NC(=O)c1cc2c(NC(=O)c3ccc(N4CCN(C)CC4)cc3)n[nH]c2s1)c1ccccc1 [Compound 33, N-(1-ethyl-1-phenylpropyl)-3-{[4-(4-methylpiperazin-1-yl)benzoyl]amino}-1H-thieno[2,3-c]pyrazole-5-carboxamide]	< 20
CC(C)(NC(=O)c1cc2c(NC(=O)c3ccc(N4CCOCC4)cc3)n[nH]c2s1)c1ccc(F)cc1 [Compound 150, 3-(4-Morpholin-4-yl-benzoylamino)-1H-thieno[2,3-c]pyrazole-5-carboxylic acid [1-(4-fluoro-phenyl)-1-methyl-ethyl]-amide]	< 20
CC(C)(NC(=O)c1cc2c(NC(=O)c3ccc(CN4CCSC4)cc3)n[nH]c2s1)c1ccccc1 [Compound 49, 3-(4-Thiazolidin-3-ylmethyl-benzoylamino)-1H-thieno[2,3-c]pyrazole-5-carboxylic acid (1-methyl-1-phenyl-ethyl)-amide]	< 20
C[C@@H](NC(=O)c1cc2c(NC(=O)c3ccc(F)cc3)n[nH]c2s1)c1ccc(F)cc1 [Compound 11, 3-[(4-fluorobenzoyl)amino]-N-[(1R)-1-(4-fluorophenyl)ethyl]-1H-thieno[2,3-c]pyrazole-5-carboxamide]	< 20
CC(C)(NC(=O)c1cc2c(NC(=O)c3ccc(CN4CCS(=O)(=O)CC4)cc3)n[nH]c2s1)c1ccccc1 [Compound 41, 3-[4-(1,1-Dioxo-1-thiomorpholin-4-ylmethyl)-benzoylamino]-1H-thieno[2,3-c]pyrazole-5-carboxylic acid(1-methyl-1-phenyl-ethyl)-amide]	< 20

Now from value to compound:

IC50 [nM]	SMILES
< 20	CC(C)(NC(=O)c1cc2c(NC(=O)c3ccc(N4CCOCC4)cc3)n[nH]c2s1)c1cccc(F)c1 [Compound 149, 3-(4-Morpholin-4-yl-benzoylamino)-1H-thieno[2,3-c]pyrazole-5-carboxylic acid [1-(3-fluoro-phenyl)-1-methyl-ethyl]-amide]
< 20	CC(C)(NC(=O)c1cc2c(NC(=O)c3ccc(CN4CCCC4)cc3)n[nH]c2s1)c1cccc(F)c1 [Compound 50, 3-(4-Pyrrolidin-1-ylmethyl-benzoylamino)-1H-thieno[2,3-c]pyrazole-5-carboxylic acid [1-(3-fluoro-phenyl)-1-methyl-ethyl]-amide]
< 20	C[C@@H](NC(=O)c1cc2c(NC(=O)c3cccs3)n[nH]c2s1)c1ccc(F)cc1 [Compound 17, N-[(1R)-1-(4-fluorophenyl)ethyl]-3-[(thien-2-ylcarbonyl)amino]-1H-thieno[2,3-c]pyrazole-5-carboxamide]
< 20	CC(C)(NC(=O)c1cc2c(NC(=O)c3cccs3)n[nH]c2s1)c1ccc(F)cc1 [Compound 151, 3-[(Thiophene-2-carbonyl)-amino]-1H-thieno[2,3-c]pyrazole-5-carboxylic acid [1-(4-fluoro-phenyl)-1-methyl-ethyl]-amide]
< 20	CC(C)(NC(=O)c1cc2c(NC(=O)c3ccc(CN4CCNCC4)cc3)n[nH]c2s1)c1ccccc1 [Compound 47, 3-(4-piperazin-1-ylmethyl-benzoylamino)-1H-thieno[2,3-c]pyrazole-5-carboxylic acid (1-methyl-1-phenyl-ethyl)-amide]
< 20	O=C(Nc1n[nH]c2sc(C(=O)NC3(c4ccccc4)CC3)cc12)c1ccco1 [Compound 23, 3-(2-furoylamino)-N-(1-phenylcyclopropyl)-1H-thieno[2,3-c]pyrazole-5-carboxamide]
< 20	CC(C)(NC(=O)c1cc2c(NC(=O)c3ccc(N4CCOCC4)nc3)n[nH]c2s1)c1ccccc1 [Compound 136, 3-[(6-Morpholin-4-yl-pyridine-3-carbonyl)-amino]-1H-thieno[2,3-c]pyrazole-5-carboxylic acid (1-methyl-1-phenyl-ethyl)-amide]
< 20	CC[C@@H](NC(=O)c1cc2c(NC(=O)c3ccc(F)cc3)n[nH]c2s1)c1ccccc1 [Compound 9, 3-[(4-fluorobenzoyl)amino]-N-[(1R)-1-phenylpropyl]-1H-thieno[2,3-c]pyrazole-5-carboxamide]
< 20	CC(C)NCc1ccc(C(=O)Nc2n[nH]c3sc(C(=O)NC(C)(C)c4ccccc4)cc23)cc1 [Compound 40, 3-[4-(Isopropylamino-methyl)-benzoylamino]-1H-thieno[2,3-c]pyrazole-5-carboxylic acid (1-methyl-1-phenyl-ethyl)-amide]
< 20	COc1cccc(C(C)(C)NC(=O)c2cc3c(NC(=O)c4ccc(N5CCOCC5)cc4)n[nH]c3s2)c1 [Compound 140, 3-(4-Morpholin-4-yl-benzoylamino)-1H-thieno[2,3-c]pyrazole-5-carboxylic acid [1-(3-methoxy-phenyl)-1-methyl-ethyl]-amide]

Source: US8481584B2, “1H-thieno[2,3-c]pyrazole derivatives useful as kinase inhibitors” (Nerviano Medical Sciences S.R.L., priority 2004, dated 2013)
